From PMC6934184, “Selective DNA-PKcs inhibition extends the therapeutic index of localized radiotherapy and chemotherapy” (The Journal of Clinical Investigation, 2019)

Biological target: T1, AMPK (A2/B2/G1) (Homo sapiens, UniProt P54646)
T1 construct: purchased Thermo Fisher Scientific (Life Technologies) SelectScreen
Test: SelectScreen LanthaScreen
Format: binding
Conditions: read-out: % displacement
In short: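 SelectScreen broad panel; activity (Z'LYTE, Adapta) plus binding formats. ATP: Km app for CSF1R Z'LYTE; 10 for CAMK1 Adapta. Readout = % per kinase.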

T1 sequence (P54646 whole entry): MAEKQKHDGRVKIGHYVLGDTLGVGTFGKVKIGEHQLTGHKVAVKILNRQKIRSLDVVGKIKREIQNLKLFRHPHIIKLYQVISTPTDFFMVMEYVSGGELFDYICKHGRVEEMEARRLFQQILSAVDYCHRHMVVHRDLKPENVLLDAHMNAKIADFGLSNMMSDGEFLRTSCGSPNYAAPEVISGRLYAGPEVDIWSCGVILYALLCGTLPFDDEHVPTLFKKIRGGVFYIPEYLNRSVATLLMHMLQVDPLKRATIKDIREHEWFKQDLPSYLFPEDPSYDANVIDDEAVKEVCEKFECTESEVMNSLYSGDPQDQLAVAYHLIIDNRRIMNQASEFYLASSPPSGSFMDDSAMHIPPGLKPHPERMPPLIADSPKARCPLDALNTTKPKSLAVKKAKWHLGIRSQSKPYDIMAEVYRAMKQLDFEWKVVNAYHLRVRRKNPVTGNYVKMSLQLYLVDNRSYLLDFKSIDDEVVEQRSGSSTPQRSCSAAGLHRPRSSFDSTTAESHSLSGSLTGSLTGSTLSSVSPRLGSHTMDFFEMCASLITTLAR
T1 sequence (O43741 whole entry partner): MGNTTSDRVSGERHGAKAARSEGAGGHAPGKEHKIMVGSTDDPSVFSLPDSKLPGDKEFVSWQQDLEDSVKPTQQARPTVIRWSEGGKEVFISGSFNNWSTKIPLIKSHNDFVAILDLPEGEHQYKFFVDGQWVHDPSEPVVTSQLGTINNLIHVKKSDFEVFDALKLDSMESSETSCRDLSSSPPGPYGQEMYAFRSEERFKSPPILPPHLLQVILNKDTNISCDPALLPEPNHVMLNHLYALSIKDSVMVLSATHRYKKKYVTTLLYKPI
T1 sequence (P54619 whole entry partner): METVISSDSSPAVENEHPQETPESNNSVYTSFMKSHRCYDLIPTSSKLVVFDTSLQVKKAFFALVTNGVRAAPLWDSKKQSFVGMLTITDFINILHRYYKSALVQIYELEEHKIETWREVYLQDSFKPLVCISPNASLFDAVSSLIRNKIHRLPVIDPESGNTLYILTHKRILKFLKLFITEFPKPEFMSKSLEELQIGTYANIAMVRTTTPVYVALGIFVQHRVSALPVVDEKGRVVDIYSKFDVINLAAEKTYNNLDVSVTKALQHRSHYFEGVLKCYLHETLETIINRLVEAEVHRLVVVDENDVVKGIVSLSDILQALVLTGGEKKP

For CN(C(=O)CN1CCOCC1)c1ccc2sc3c(-c4cccc5c(=O)cc(N6CC7CCC(C6)O7)oc45)cccc3c2c1 [NU5455], the inhibition at 1 µM was -2.3%.
